# Measured values reported in PubChem BioAssay AID1996.
# Settings: buffer; pH 7.4; 200.0 µM
row,solubility kinetic,SMILES
1,> 51.8 µg/mL,Cc1[nH]c(=S)c(C#N)c(-c2ccccc2)c1C(=O)Nc1ccccc1
2,15.3 µg/mL,O=Cc1c(F)cccc1N1CCCC1
3,> 40 µg/mL,S=C(NCc1ccco1)Nc1ccccc1Cl
4,6.1 µg/mL,S=C(c1ccc(-c2cccc(Cl)c2)o1)N1CCCCC1
5,33.5 µg/mL,O=C(c1ccc2nc(Cc3ccccc3F)oc2c1)N1CCCC1
6,< 0.8 µg/mL,C=CCOc1ccc(/C=C/C(=O)OCC(=O)NC2CCCCCCC2)cc1
7,< 0.4 µg/mL,O=C(/C=C/c1ccc(Cl)cc1)Nc1ccc(N2CCOCC2)cc1
8,17.3 µg/mL,COc1ccc(CCC(=O)N2CCN(c3cccc(C)c3C)CC2)cc1
9,36 µg/mL,CN(CC(=O)Nc1ccc(Cl)cc1)C1CCCCC1
10,> 43.6 µg/mL,CC(C)N1CCN(CCCc2ccccc2)CC1CCO (configuration not stated)
11,> 42.3 µg/mL,CC1CCCN(CCC(=O)Nc2ccc(F)c(F)c2)C1 (configuration not stated)
12,> 37.3 µg/mL,S=C(Nc1ccccc1)N1CCCCCCC1
13,17.4 µg/mL,O=C1N=C(N2CCN(c3ccccc3)CC2)S/C1=C/c1ccco1
14,> 37.8 µg/mL,Cn1cc([N+](=O)[O-])c(C(=O)N2CCCCCC2)n1
15,> 45.5 µg/mL,CCN1CCC(N2CCN(c3ccccc3OC)CC2)CC1
16,27.8 µg/mL,COc1ccc(NC(=O)N2CCCc3cc(C)ccc32)c(OC)c1
17,33.8 µg/mL,O=Cc1ccccc1OCCN1CCCC1=O
18,42.4 µg/mL,CC(NC(=O)CN1CCN(c2cccc(Cl)c2)CC1)c1ccccc1 (configuration not stated)
19,7.4 µg/mL,O=C1CN(c2ccccc2)C(=S)N1c1ccccc1.[Na+]
20,40.8 µg/mL,O=C(NCC1COc2ccccc2O1)C1CCN(S(=O)(=O)c2ccccc2)CC1 (configuration not stated)

# More lines, now with the values behind:
row,SMILES,solubility kinetic
1,Cc1cc(C(=O)NNC(=O)C(CCC(N)=O)NS(=O)(=O)c2ccc(Cl)cc2)c(C)o1 (configuration not stated),> 68.5 µg/mL
2,Cc1cccc(OCC(=O)NCCNC(=O)c2cccnc2)c1,> 47 µg/mL
3,COc1ccccc1C(c1c(N)n(C)c(=O)n(C)c1=O)C(C)[N+](=O)[O-] (configuration not stated),> 52.3 µg/mL
4,CCc1noc(C)c1C(=O)OCC(=O)N1CCc2ccccc21,4.6 µg/mL
5,CC(C)(C)C(=O)OC/C(N)=N/OC(=O)c1ccc(Cl)cc1,1.6 µg/mL
6,CC(=O)c1ccc(N2C(=O)CC(N3CCN(S(=O)(=O)c4ccc(C)c(C)c4)CC3)C2=O)cc1 (configuration not stated),15 µg/mL
7,COc1cc(C)ccc1OCC(=O)OCC(=O)NCC1CCCCC1,> 52.4 µg/mL
8,Cc1cccc(NC(=O)/C(C#N)=C/c2ccc[nH]2)c1C,2.1 µg/mL
9,COc1cc(C(=O)NCC(=O)Nc2c(C)cccc2C)ccc1OCC(=O)N1CCOCC1,> 68.3 µg/mL
10,COc1cc(C)c(Cl)cc1S(=O)(=O)N1CCSC1,33 µg/mL
11,O=C(CSc1nc2ccccc2s1)c1ccc(O)cc1O,3.3 µg/mL
12,Cn1c(/C=C/c2ccc(Cl)cc2)nc2ccccc2c1=O,< 0.3 µg/mL
13,NC(=O)c1ccsc1NC(=O)CSc1nncs1,> 45.1 µg/mL
14,CCOC(=O)c1nc(-c2ccc(OC)c(OC)c2)no1,40.8 µg/mL
15,CNC(=O)c1ccc(NC(=O)CC23CC4CC(CC(C4)C2)C3)cc1,13.8 µg/mL
16,O=C(COC(=O)c1ccc[n+]([O-])c1)Nc1cc([N+](=O)[O-])ccc1Cl,> 52.8 µg/mL
17,C=CCOn1c(=O)c(-c2ccc(F)cc2)[n+]([O-])c2ccccc21,2 µg/mL
18,CN(C)CCN=Cc1c(O)n(Cc2ccc3c(c2)OCO3)c(=O)c2ccccc12,16.3 µg/mL
19,Fc1cccc(Cl)c1CSC1=NCCS1,2.3 µg/mL
20,CC(=O)c1c(O)c2ccccc2n(Cc2ccccc2)c1=O,11.8 µg/mL
21,CC1CC(=O)Nc2ccccc2N1S(=O)(=O)c1cccc(F)c1 (configuration not stated),30 µg/mL
22,NS(=O)(=O)c1cc(C(=O)OC2CCOC2=O)ccc1Cl (configuration not stated),> 48 µg/mL
23,COC(=O)c1sc(NC(=O)c2ccncc2)nc1C,27.3 µg/mL
24,Cc1ccnc(SC2CC(=O)N(c3ccc(F)cc3)C2=O)n1 (configuration not stated),38 µg/mL
25,Cc1csc(NC(=O)c2ccc(Cl)nc2)n1,> 38.1 µg/mL
26,CC(Nc1ccc2c(c1)OCCO2)C(=O)Nc1ccc2c(c1)OCO2 (configuration not stated),> 51.4 µg/mL
27,Clc1cc(/C=N\NC2=NCCN2)cc(Cl)n1,> 38.7 µg/mL
